Assay results as given in patent publication US5494932A, “Sulfonic stilbene derivatives in the treatment of viral disease” (Merrell Dow Pharmaceuticals Inc., priority 1991, dated 1996).
Entries after “also recorded” stand apart in the source; their conditions may differ.

Columns and labels:
[1] = system: virus-induced cell fusion (gp120-CD4 dependent); assay: Cell fusion after pretreatment of uninfected C8166 cells, washing and mixing with chronically infected H9 cells; format: cell-based, HIV-1; human H9 and C8166 cells; conditions: 100 μg/ml; overnight pretreatment, washed; 6 hour observation
Description: In the next experiments, CD4+ C8166 cells were pretreated overnight with either DIDS (100 μg/ml), SITS (100 μg/ml) or drug-free medium. Unabsorbed compounds were removed by repeated washings and chronically infected H9 cells were then added. […] Thus, cell washing prior to mixing with the H9 cells oblated the protective effect observed above (FIG. 1, Panel E) when 500,000 MW dextran sulfate was continually present in the assay.
Pretreatment of CD4+ C8166 cells with DIDS blocks fusion with chronically infected H9 cells. In this experiment, C8166 cells were pretreated overight with various stilbene disulfonic acids or drug-free medium (fusion control). The cells were washed, incubated with chronically infected H9 cells and syncytia were photographed at 6 hours post-mixing. Pretreatment conditions were as follows: […]: 100 μg/ml SITS; FIG. 2B: drug-free medium; and FIG. 2C: 100 μg/ml DIDS.
In pretreatment experiments, CD4^+ C8166 cells were maintained in serum-free medium (RPMI 1640 plus human transferrin 50 μg/ml, bovine insulin 20 μg/ml, bovine serum albumin 2 mg/ml) and were exposed to compound by overnight incubation. Treated cells were washed twice in fresh serum-free medium and then cocultured with chronically infected H9 cells in serum-free medium. Otherwise, cell numbers, assay conditions and scoring of syncytia were as described above.
Protocol: C8166 cells were pretreated for 2.5 hours with either DIDS, SITS or H2 DIDS (at 500 and 250 μg/ml). The cells were then washed three times and mixed with H9 cells chronically infected with HIV-1. Cell fusion was quantified after 4 and 24 hours.

[2] = system: HIV-1 strain RF in MT-4 cells; assay: Growth of HIV-1 RF in MT-4 cells; format: cell-based, HIV-1 (human MT-4 cells)
Description: When evaluated in the human T cell line JM acutely infected with the GB8 virus, DIDS, H2 DIDS and SITS (Table I) suppressed virus-induced multinucleated giant cell formation (syncytia). […] We also examined the antiviral properties of these compounds in a second host-cell/virus system, i.e., the highly CD4+ C8166 cells infected with the Haitian strain of HIV-1, RF.
The cell lines used were the semi-mature human lymphoblastoid leukemia T cell line JM, the human T-lymphoblastoid C8166 cell line, the human cutaneous T cell lymphoma line H9 and, the human T cell transformed line MT-4. Stocks of HIV-1 strains RF and GB8 (kindly provided by Dr. Graham Farrar, Center for Applied Microbiological Research, Porton Dawn, England) were prepared from chronically infected H9 cells and acutely infected JM cells, respectively. Virus stocks consisted of cell-free growth medium (RPMI 1640 plus 10% fetal calf serum) containing freshly shed virus. Virus titres were determined by a standard plaque reduction assay.

[3] = system: virus-induced cell fusion (gp120-CD4 dependent); assay: Anti-syncytial cocultivation assay: H9 cells chronically infected with HIV-1 RF mixed with uninfected C8166 cells; format: cell-based, HIV-1 RF; human H9 and C8166 cells; conditions: for Syncytia after 2 hrs: virus control ++; for Syncytia after 3 1/2 hrs / Syncytia after 5 1/2 hrs: virus control +++
Description: Syncytial cell formation depends on the interaction of gp120, expressed in the membranes of infected cells, with the CD4 antigen on neighboring cells (Camerini and Seed, 1990). We utilized a cell cocultivation model to examine the effect of the stilbene disulfonic acids on the gp120-CD4 dependent fusion process. This system consists of mixing H9 cells chronically infected with HIV-1 RF (gp120^+ cells) with uninfected C8166 cells (CD4^+ cells) as the fusion indicator. In this assay, cell fusion occurred within 2 to 3 hours of mixing at 37° C. and substantial syncytia were observed after a further 3 to 4 hours (FIG. 1, Panel A). […] These findings with the sulfated polysaccharides were consistent with a previous report (Montefiori et al., 1990).
The effect of the stilbene disulfonic acids and various sulfated polysaccharides on virus-induced cell fusion. In this assay, 10^5 H9 cells, chronically infected with the HIV-1 strain RF, were cocultured with 10^5 uninfected C8166 cells in the absence and presence of the test compounds. FIG. 1A: Positive control, no compound addition; FIG. 1B: 100 μg/ml DIDS; FIG. 1C: 100 μg/ml SITS; FIG. 1D: positive control; FIG. 1E: 10 μg/ml 500,000 MW dextran sulfate; FIG. 1F: 250 μg/ml heparin.
CD4^+ uninfected C8166 cells were seeded into 24-well trays ([…]) that contained growth medium and various concentrations of test compounds. H9 cells, chronically infected with the RF strain of HIV-1, were washed and then added as a source of gp120^+ cells at 10^5 cells/well except for the noncytopathic control: those wells received uninfected H9 cells. The trays were then incubated at 37° C. and the cocultures were observed between 1 and 6 hours p.i. Syncytia were recorded on photographic film.
Protocol: H9 cells chronically infected with RF strain of HIV-1 and uninfected C8166 cells were mixed in the presence of either DIDS, SITS, H2 DIDS, dextran sulfate, or heparin (100 μg/ml). The cells were observed after 2, 31/2 and 51/2 hours and the amount of cell fusion quantified.
Protocol: H9 cells chronically inected with HIV-1 and uninfected C8166 cells were mixed in the presence of either DIDS, SITS, H2 DIDS, dextran sulfate, heparin (at 100 μg/ml), OKT4 or OKT4A (at a 1/50 dilution). The cells were observed after 4 hours and the amount of cell fusion quantitied. OKT4 and OKT4A are monoclonal antibodies that bined the CD4 cell surface antigen.

SMILES | syncytia / fusion after pretreatment [1] | growth of RF in MT-4 cells / antiviral activity [2] | cell fusion / syncytia ([3]; 100 μg/ml, at the time of cell mixing) | Syncytia after 2 hrs ([3]; 100 μg/ml) | Syncytia after 3 1/2 hrs ([3]; 100 μg/ml) | Syncytia after 5 1/2 hrs ([3]; 100 μg/ml) | protection of C8166 cells ([3]; 200 μg/ml, 5 days post-mixing, not shown) | blocking virus-induced cell fusion and death ([3]; summary statement)
O=S(=O)(O)c1cc(N=C=S)ccc1C=Cc1ccc(N=C=S)cc1S(=O)(=O)O [DIDS, 4,4'-diisothiocyanatostilbene-2,2'-disulfonic acid] | remained syncytia-free; also recorded: blocks fusion | blocked the growth of RF | completely prevented cell fusion | 0 | 0 | 0 | totally protected the C8166 cells | siginificant antiviral activity
O=S(=O)(O)c1cc(N=C=S)ccc1CCc1ccc(N=C=S)cc1S(=O)(=O)O [H2 DIDS, 4,4'-diisothiocyanatodihydrostilbene-2,2'-disulfonic acid] |  |  |  | 0 | 0 | 0 |  | 
CC(=O)Nc1ccc(C=Cc2ccc(N=C=S)cc2S(=O)(=O)O)c(S(=O)(=O)O)c1 [SITS, 4-acetamido-4'-isothiocyanatostilbene-2,2'-disulfonic acid] | failed to block syncytia | weak antiviral activity |  |  |  |  |  | 
